Laboratory results from patent publication US10842892B2, “Methods and apparatus for synthesizing imaging agents, and intermediates thereof” (Lantheus Medical Imaging, Inc., priority 2010, dated 2020).
Values joined by “and” are separate entries in the source; they are usually repeats but may differ in a detail not shown here. Identical values can stand only once.

Key:
healthy adults = experiment: radiation dosimetry after single injection at rest (OLINDA/EXM, MIRD); assay type: in vivo, human
Procedure: This was a non-randomized, open-label, single-dose study. A total of 13 healthy adult subjects were enrolled and administered a single dose of imaging agent 1 at a single study center in the United States. Subjects were screened within 14 days prior to enrollment to confirm subject eligibility, and began baseline assessments at the study center the day before study drug administration. Subjects remained at the study center until completion of the Study Day 2 safety assessments (24±8 hours post-dose). A telephone call was made to study subjects 48±8 hours post-dose for adverse event (AE) monitoring. All subjects returned to the study center approximately one week (5-7 days) post-dose for a follow-up safety visit, and were contacted by telephone approximately 14-17 days post-dose for final serious AE monitoring.
On day 1, each subject received a 1-3 mL intravenous bolus injection of imaging agent 1 in a sterile solution of ≤5% ethanol containing ≤50 mg/mL sodium ascorbate in water, calculated to deliver approximately the target dose of imaging agent 1 at the time of injection. The dose was administered in less than 10 seconds, followed immediately by a 3-5 mL saline flush.
Dosimetry analyses. Estimates of radiation dosimetry for the standard organs of the adult male and female models and for the, salivary glands as well as the effective dose equivalent (EDE) (International Commission on Radiological Protection (ICRP), Recommendations of the International Commission on Radiological Protection, Publication 26. Ann ICRP. 1977; 1(3)) and the effective dose (ED) (International Commission on Radiological Protection (ICRP), 1990 Recommendations of the International Commission on Radiological Protection, 60. Ann ICRP. 1990; 21(1-3)) were determined using the OLINDA/EXM software (Stabin, M G, Sparks, R B, et al, OLINDA/EXM: the second-generation personal computer software for internal dose assessment in nuclear medicine.” J Nucl Med 2005 46(6):1023-7) Assessment of radiation dosimetry was based on the MIRD method, with data derived from imaging studies, using methods consistent with MIRD Pamphlet no. 16 (Siegel J A, Thomas S R, Stubbs J B, et al. MIRD pamphlet no. 16: Techniques for quantitative radiopharmaceutical biodistribution data acquisition and analysis for use in human radiation dose estimates. J Nucl Med. 1999 February; 40(2):37S-61S).
The attenuation corrected transverse image data slice planes were combined into a single three-dimensional image matrix for each subject and each time point using custom software. These images were then divided into 6 image sets (“anterior”, “posterior”, “salivary”, “thyroid”, “source”, and “full”) of combined coronal plane image data for each subject at each time point, grouping organs with similar anterior to posterior depths. This was done to optimize the ROI creation, and minimize background contribution to the organs contained in each combined coronal plane image. The “anterior” images contained stomach wall, heart wall, and urinary bladder. The “posterior” images contained kidneys, lumbar spine, and spleen (when visible). The “salivary” images contained the salivary glands (parotid and submandibular). The “thyroid” images contained the thyroid. The “full” images combined all of the coronal image planes that contained subject image data and was used for quantification of the brain and liver. The “source” images contained the calibration source.
Absolute radioactivity was determined by normalizing ROI sums by a calibration factor derived from the calibration source. Region counts were also adjusted for activity containing underlying and overlying tissue that was not part of the organ or tissue being quantified by utilization of background regions of interest. Total body region counts were also corrected for off body background counts. Appropriate normalization of region sizes for organ and adjacent regions were made. […]

[1] = early elimination of ^18F in urine; assay type: in vivo, human
Procedure: Urine collected pre-dose (Baseline), and all voids up to 8 hours post-dose were collected and assayed for ^18F. However, as in blood collection, the urine collection terminated near the 7-hour minimum specified in the protocol. Mean urinary excretion over the approximate 7-hour void interval was 4.83% ID with a % CV of 64.7 and a range of 0.64% ID to 12.41% ID. This finding is in reasonable agreement with cumulative urine excretion of 5% as measured with PET imaging.

myocardial blood flow = conditions: humans, assumed, equivalent to pre-clinical studies; cited from earlier work
heart wall = conditions: primate-derived estimates; cited from earlier work
[2] = N = 12, Void Interval = 3.5 hours

With `CC(C)(C)n1ncc(OCc2ccc(COCC[18F])cc2)c(Cl)c1=O` [imaging agent 1, 2-t-butyl-4-chloro-5-[4-(2-(^18F)fluoroethoxymethyl)-benzyloxy]-2H-pyridazin-3-1] the “mean ED” value (healthy adults; N = 12) was 0.072 rem/mCi, the “mean absorbed dose, heart wall” value (healthy adults; N = 12) was 0.18 rem/mCi and the “mean absorbed dose, kidneys (critical organ)” value (healthy adults; N = 12) was 0.24 rem/mCi. For the same compound, the “ED, Mean” value (healthy adults; [2]) was 0.019 mSv/MBq and 1.9E−02 mSv/MBq, the “EDE, Mean” value (healthy adults; [2]) was 2.2E−02 mSv/MBq and the “absorbed dose estimate, Mean, Brain” value (healthy adults; [2]) was 2.5E−02 mSv/MBq. For the same compound, the “absorbed dose estimate, Mean, Breasts” value (healthy adults; [2]) was 8.8E−03 mSv/MBq, the “absorbed dose estimate, Mean, Gallbladder Wall” value (healthy adults; [2]) was 1.7E−02 mSv/MBq and the “absorbed dose estimate, Mean, Heart Wall” value (healthy adults; [2]) was 0.048 mSv/MBq and 4.8E−02 mSv/MBq. The “absorbed dose estimate, Mean, Kidneys” value (healthy adults; [2]) was 0.066 mSv/MBq and 6.6E−02 mSv/MBq, the “absorbed dose estimate, Mean, LLI Wall” value (healthy adults; [2]) was 1.2E−02 mSv/MBq and the “absorbed dose estimate, Mean, Liver” value (healthy adults; [2]) was 3.9E−02 mSv/MBq. The “absorbed dose estimate, Mean, Lungs” value (healthy adults; [2]) was 1.1E−02 mSv/MBq, the “absorbed dose estimate, Mean, Muscle” value (healthy adults; [2]) was 1.0E−02 mSv/MBq and the “absorbed dose estimate, Mean, Osteogenic Cells” value (healthy adults; [2]) was 1.9E−02 mSv/MBq. The “absorbed dose estimate, Mean, Ovaries” value (healthy adults; [2]) was 1.2E−02 mSv/MBq, the “absorbed dose estimate, Mean, Pancreas” value (healthy adults; [2]) was 1.6E−02 mSv/MBq and the “absorbed dose estimate, Mean, Red Marrow” value (healthy adults; [2]) was 1.6E−02 mSv/MBq. For the same compound, the “absorbed dose estimate, Mean, Salivary” value (healthy adults; [2]) was 3.5E−02 mSv/MBq, the “absorbed dose estimate, Mean, Skin” value (healthy adults; [2]) was 7.9E−03 mSv/MBq and the “absorbed dose estimate, Mean, Small Intestine” value (healthy adults; [2]) was 1.3E−02 mSv/MBq. For the same compound, the “absorbed dose estimate, Mean, Spleen” value (healthy adults; [2]) was 1.6E−02 mSv/MBq, the “absorbed dose estimate, Mean, Stomach Wall” value (healthy adults; [2]) was 4.0E−02 mSv/MBq and the “absorbed dose estimate, Mean, Testes” value (healthy adults; [2]) was 9.2E−03 mSv/MBq. The “absorbed dose estimate, Mean, Thymus” value (healthy adults; [2]) was 1.1E−02 mSv/MBq, the “absorbed dose estimate, Mean, Thyroid” value (healthy adults; [2]) was 3.2E−02 mSv/MBq and the “absorbed dose estimate, Mean, Total Body” value (healthy adults; [2]) was 1.2E−02 mSv/MBq. For the same compound, the “absorbed dose estimate, Mean, ULI Wall” value (healthy adults; [2]) was 1.3E−02 mSv/MBq, the “absorbed dose estimate, Mean, Urinary Bladder Wall” value (healthy adults; [2]) was 2.3E−02 mSv/MBq and the “absorbed dose estimate, Mean, Uterus” value (healthy adults; [2]) was 1.2E−02 mSv/MBq. The “maximum injected dose without exceeding 1 rem ED” value (healthy adults; in vivo) was 14 mCi, the “maximum injected dose without exceeding 10 mSv (1 rem) ED” value (healthy adults; in vivo) was 521 MBq and the “maximum injected dose without exceeding 50 mSv to the critical organ” value (healthy adults; kidneys) was 770 MBq. For the same compound, the Mean urinary excretion ([1]; approximate 7-hour void interval) was 4.83 % ID, the “cumulative urine excretion as measured with PET imaging” value ([1]; in vivo) was 5% and the “first pass extraction fraction” value (myocardial blood flow) was 0.94. For the same compound, the “estimated human radiation dose for the heart wall” value (heart wall) was 0.067 mSv/MBq.
